# Results from patent US7045531B1, “Composition comprising a metal chelator and a method of treating amyloidosis by administering the metal chelator” (The General Hospital Corporation, priority 1997, dated 2006).
# “Also recorded” adds a separate entry of the source.
# Experiments:
# [1] = tested on: Aβ deposits in AD brain tissue; assay: Chelator-promoted solubilization (extraction) of Aβ from AD brain homogenates, Western blot densitometry; assay type: biochemical, human; details: for Effect of Chelators (% change from control) upon extraction of Aβ: mean of 6 AD brain samples; for chelator concentration of peak Aβ solubilization (lower peak) / chelator concentration of peak Aβ solubilization (upper peak): titration curves
# Experimental: 0.5 g of prefrontal cortex was dissected and homogenized in PBS±chelator as indicated. The homogenate was then centrifuged (100,000 g) and the supernatant removed, and a sample taken for western blot assay using anti-Aβ specific antibodies after Tricine PAGE. Densitometry was performed against synthetic peptide standards.
# (§1) Suitable quantities of gray matter from each subject were minced to serve as pools of homogenous tissue. […] To obtain the soluble fraction, the homogenates were centrifuged at 100,000×g for 30 min (Beckman J180, Beckman instruments, Fullerton, Calif.) and the supernatant collected in 1 ml aliquots and stored on ice or immediately frozen at −70° C. In each experiment, all protein was precipitated from 1 ml of supernatant from each treatment group using 1:5 ice cold 10% trichloracetic acid and pelleted in a bench top microfuge (Heraeus, Osteroder, Germany) at 10,000×g. The remaining pellet was frozen at −70° C.
# Precipitated protein was subjected to SDS polyacrylamide gel electrophoresis (SDS-PAGE) on Novex pre-cast 10–20% Tris-Tricine gels followed by Western transfer onto 0.2 μm nitrocellulose membrane (Biorad, Hercules, Calif.). […] Each gel included two or more lanes containing known quantities of synthetic Aβ which served as internal reference standards. Blot images were captured by a Relisys scanner with transparency adapter (Teco Information Systems, Taiwan, ROC) and densitometry conducted using the NIH Image 1.6 program (National Institutes for Health, USA., Modified for PC by Scion Corporation, Frederick, Md.), calibrated using a step diffusion chart. For quantitation of Aβ in brain extracts, the internal reference standards of synthetic Aβ were utilized to produce standard curves from which values were interpolated.
# [2] = tested on: Aβ deposits in age-matched control / healthy brain tissue; assay: Chelator-promoted solubilization of Aβ from non-AD control brain tissue, Western blot; assay type: biochemical, human; details: chelator 2 mM
# From the text: Using the same technique, zinc-mediated assembly of Aβ in normal brains was shown. FIGS. 20A and 20B show sedimentable Aβ deposits in healthy brain tissue. The effects of chelators in enhancing Aβ extraction from brain homogenates is also observed in normal tissue. FIG. 20A illustrates a western blot with anti-Aβ antibody of material extracted from an individual with no history of neurological disorder. T=TPEN, E=EGTA, B=bathocuproine.
# as §1
# Precipitated protein was subjected to SDS polyacrylamide gel electrophoresis (SDS-PAGE) on Novex pre-cast 10–20% Tris-Tricine gels followed by Western transfer onto 0.2 μm nitrocellulose membrane (Biorad, Hercules, Calif.). Aβ was detected using the WO2, G210 or G211 monoclonal antibodies (Ida, N. et al., J. Biol. Chem. 271:22908 (1996)) in combination with HRP-conjugated rabbit anti-mouse IgG (Dako, Denmark), and visualized using chemiluminescence (ECL, Amersham Life Science, Little Chalfont, Buckinghamshire, UK). Each gel included two or more lanes containing known quantities of synthetic Aβ which served as internal reference standards. […] For quantitation of Aβ in brain extracts, the internal reference standards of synthetic Aβ were utilized to produce standard curves from which values were interpolated.
# [3] = Metal reduction assay, Fe^3+ (BP indicator); assay type: biochemical; details: Fe^3+ 10 μM; PBS pH 7.4; 1 hr, 37° C.
# Experimental: (§2) The metal reduction assay was performed using a 96-well microtiter plate (Costar) based upon a modification of established protocols (Landers, J. W., et al., Amer. Clin. Path. 29:590 (1958); Landers. J. W. et al., Clinica Chimica Acta 3:329 (1958)). Polypeptides (10 μM) or Vitamin C (100 μM), metal ions (10 μM, Fe(NO3)3 or Cu(NO3)2), and reduced metal ion indicators, bathophenanthrolinedisulfonic acid (BP, for Fe^2+, Sigma, 200 μM) or bathocuproinedisulfonic acid (BC, for Cu^+, Sigma, […]), were coincubated in phosphate buffered saline (PBS), pH 7.4, for 1 hr at 37° C. The metal ion solutions were prepared by direct dilution in the buffer from their aqueous stocks purchased from National Institute of Standards and Technology (NIST). Absorbances were then measured at 536 nm (Fe^2+-BP complex) and 483 nm (Cu^+-BC complex), respectively, using a 96-well plate reader (SPECTRAmax 250, Molecular Devices, Calif.). In control samples, both metal ion and indicator were present to determine the background buffer signal. As a further control, both metal ion and peptide were present in the absence of indicator to estimate the contribution of light scattering due to turbidity to the absorbance reading at these wavelengths. The net absorbances (ΔA) at 536 nm or 483 nm were obtained by deducting the absorbances from these controls from the absorbances generated by the peptide and metal in the presence of the respective indicator.
# The concentrations of reduced metal ions (Fe^2+ or Cu^+) were quantified based on the formula: Fe^2+ or Cu^+ (˜M)=A*10^6/(L*M), where L is the measured equivalent vertical pathlength for a well of 300 μL volume as described in the instrument's specifications manual (0.856 cm for Fe^2+; 1.049 cm for Cu^+); M is the known molecular absorbance (M^−1 cm^−1) which is 7124 (for Fe^2+-BP complex) or 2762 (for Cu^+-BC complex).
# [4] = Metal reduction assay, Cu^2+ (BC indicator); assay type: biochemical; details: Cu^2+ 10 μM; PBS pH 7.4; 1 hr, 37° C.
# Experimental: as §2, with “Polypeptides” for “The metal reduction assay was performed using a 96-well microtiter plate (Costar) based upon a modification of established protocols (Landers, J. W., et al., Amer. Clin. Path. 29:590 (1958); Landers. J. W. et al., Clinica Chimica Acta 3:329 (1958)). Polypeptides”
# Aβ1-42 = Aβ1-42 (Homo sapiens, UniProt P05067); assay: Effect of OH. scavengers on OH. generation by Aβ1-42 (TBARS); assay type: biochemical; details: scavenger 5 mM; Fe^3+ or Cu^2+
# Aβ1-42, sequence (P05067 672-713 limits assumed): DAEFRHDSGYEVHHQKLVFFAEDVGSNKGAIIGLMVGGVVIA
# Experimental: (§3) FIGS. 16A and 16B are graphical representations showing production of the hydroxyl radical (OH.) from the incubation of Aβ in the presence of substoichiometric amounts of Fe^3+ or Cu^2+. […] All data points are means±SD, n=3.
# (§4) The Thiobarbituric Acid-Reactive Substance (TBARS) assay for incubation mixtures with Fe^3+ or Cu^2+ was performed in a 96-well microtiter format modified from established protocols (Gutteridge et al. Biochim. Biophys. Acta 759: 38–41 (1983)). Aβ peptide species (10 μM) or Vitamin C (100 μM), were incubated with Fe^3+ or Cu^2+ (1 μM) and deoxyribose (7.5 mM, Sigma) in PBS, pH 7.4. Following incubation (37° C., 1 hour), glacial (17 M) acetic acid and 2-thiobarburic acid (1%, w/v in 0.05 M NaOH, Sigma) were added and heated (100° C., 10 min). The final mixtures were placed on ice for 1–3 minutes before absorbances at 532 nm were measured. The net absorbance change for each sample were obtained by deducting the absorbance from a control sample consisting of identical chemical components except for the Vitamin C or Aβ peptides.
# [5] = Effect of OH. scavengers on OH. generation by Vitamin C (TBARS); assay type: biochemical; details: scavenger 5 mM
# Experimental: as §3, §4
# [6] = Cu^+ generation / metal reduction (Example 2); assay type: biochemical; details: 10 μM in PBS; Cu^2+ 10 μM; 30 minutes, 37° C.
# Experimental: This method is modified from a protocol assaying serum copper and iron (Landers, J. W., et al., Amer. J. Clin. Path. 29:590 (1958)). It is based on the fact that there are optimal visible absorption wavelengths of 483 nm and 535 nm for Cu^+ complexed with bathocuproinedisulfonic (BC) anion and Fe^2+ coordinated by bathophenanthrolinedisulfonic (BP) anion, respectively.
# Aβ (10 μM in PBS, pH 7.4 or 6.8, as shown) was incubated for 30 minutes (37° C.) in the presence of Cu^2+ 10 μM±Zn^2+ 10 μM). Cu^+ levels (n=3, ±SD) were assayed against a standard curve.
# [7] = chelator 2 mM, mean of AD subjects 1-6
compound,measurement,setting,value
"c1ccc(CN(CCN(Cc2ccccn2)Cc2ccccn2)Cc2ccccn2)nc1 [TPEN, N,N,N′,N′-tetrakis [2-pyridyl-methyl]ethylenediamine]",mean increase in solubilized Aβ over PBS alone,[1]; 6 AD brains,around 2 fold
same,Effect of Chelators (% change from control) upon extraction of Aβ,[1]; chelator 0.1 mM,182%
same,Effect of Chelators (% change from control) upon extraction of Aβ,[1]; chelator 2.0 mM,241%
same,"Extractable Aβ (% of total), mean X",[1]; [7],(4.6) %
same,"Extractable Aβ, mean X",[1]; [7],2.73 µg/g
same,X C/PBS,"[1]; chelator 2 mM, mean with chelator over mean with PBS, AD",2.60
same,chelator concentration of peak Aβ solubilization (lower peak),[1],~0.004 mM
same,chelator concentration of peak Aβ solubilization (upper peak),[1],~0.1 mM
same,"Extractable Aβ (% of total), mean X",[2]; mean of AC subjects 1-5,(16.7) %
same,"Extractable Aβ, mean X",[2]; mean of AC subjects 1-5,0.40 µg/g
same,X C/PBS,"[2]; mean with chelator over mean with PBS, AC",1.6
Aβ1-42: synthetic human Aβ1-42 peptide,available Fe^3+ reduced,[3],50%
"Aβ1-28: Aβ fragment 1-28, purchased",available Fe^3+ reduced,[3],did not significantly facilitate the reduction of Fe^3+
same,available Cu^2+ reduced,[4],reduced no Cu^2+
"C[S+](C)[O-] [DMSO, dimethyl sulfoxide]",effect on generation of OH. by Aβ1-42,Aβ1-42,neither were able to quench
same,effect on generation of OH. by Vitamin C,[5]; in the presence of Cu^2+,suppressed
same,effect on generation of OH. by Vitamin C,[5]; in the presence of Fe^3+,suppressed
"O=C1O[C@H]([C@@H](O)CO)C(O)=C1O [Vitamin C, ascorbic acid]",available Fe^3+ reduced,[3],15%
same,available Cu^2+ reduced,[4],reduced Cu^2+ efficiently
OC[C@@H](O)[C@@H](O)[C@H](O)[C@H](O)CO [Mannitol],effect on generation of OH. by Aβ1-42,Aβ1-42,neither were able to quench
same,effect on generation of OH. by Vitamin C,[5]; in the presence of Fe^3+,suppressed
O=C(O)CN(CCOCCOCCN(CC(=O)O)CC(=O)O)CC(=O)O [EGTA],Effect of Chelators (% change from control) upon extraction of Aβ,[1]; chelator 0.1 mM,207%
same,effect on Aβ signal,[1]; chelator 2 mM,virtually abolished the signal for Aβ; also recorded: always produced a diminution in Aβ signal
same,Effect of Chelators (% change from control) upon extraction of Aβ,[1]; chelator 2.0 mM,46%
same,chelator concentration of peak Aβ solubilization (lower peak),[1],~0.004 mM
same,chelator concentration of peak Aβ solubilization (upper peak),[1],~0.1 mM
insulin: histidine-containing peptide that can bind copper and zinc,Cu^2+ reduction / redox reactivity,[6],no Cu^2+ reduction
same,available Fe^3+ reduced,[3],did not significantly facilitate the reduction of Fe^3+
same,available Cu^2+ reduced,[4],10%
